Laboratory results as given in US20110038897A1, “ORAL CONTROLLED RELEASE FORMULATIONS” (priority 1999, published 2011).

Experiment: Biopharmaceutical properties of rivastigmine in humans
Format: in vivo

SMILES: CCN(C)C(=O)Oc1cccc([C@H](C)N(C)C)c1 [Rivastigmine]
- absorption: rapidly and completely absorbed
- metabolism (esterases, e.g., acetyl and butyryl cholinesterase): metabolised mainly through hydrolysis by esterases
